# Test results as given in patent US3989835A, “Method of using 6-substituted amino phenyl-2,3,5,6-tetra-hydro[2,1-b]thiazoles for controlling gastrointestinal nematodes” (American Cyanamid Company, priority 1974, dated 1976).
# Counter-ions that a name gives are not always drawn. Like-named read-outs stand apart in the source and are kept apart here.
# Assays:
# in vivo = settings: for LD50: mouse, in vivo, po; for Approx. LD50 /ED50: chemotherapeutic index, mouse oral, N. dubius; for Dead/Total: mice
# From the text: Data on the acute oral toxicity to mice of various single oral doses of the above compounds and several analogs were obtained by conventional procedures, (Table IX hereinafter).
# Nematospiroides dubius = test: Anthelmintic efficacy against N. dubius in mice, single oral dose; assay type: in vivo, Nematospiroides dubius (in albino female mice); settings: for inhibition in vivo at 40 mg/kg: single oral dose 40 mg./Kg.; for inhibition in vivo at 60 mg/kg: single oral dose 60 mg./Kg.; for inhibition in vivo at 2 mg/kg: single oral dose 2.0 mg./Kg.; for inhibition in vivo at 5 mg/kg: single oral dose 5.0 mg./Kg.; for inhibition in vivo at 100 mg/kg: single oral dose 100 mg./Kg.; for inhibition in vivo at 50 mg/kg: single oral dose 50 mg./Kg.; for inhibition in vivo at 20 mg/kg: single oral dose 20 mg./Kg.
# Description: Albino female mice are each inoculated with about 20 infectious larvae of Nematospiroides dubius. This nematode is a representative of the economical important trichostrongylis worms of ruminants and other hosts, and of nematodes in general. Twenty-two days after inoculation, groups of four randomly selected mice containing adult N. dubius are given single oral doses of test compounds dissolved or suspended in 0.4 ml. of water per 20 gram mouse. At 26 or 27 days after inoculation, treated mice and in each test four randomly selected groups of untreated mice are necropsied. The number of worms in the small intestine of each mouse are determined by microscopic examination. Average worm numbers for each treated group and for the untreated controls are computed and the percent efficacy determined by the customary formula:
# (Average Worms in Control - Average Worms in Treated)/(Average Worms in Control) X 100.
# [1] = LD50, mice, adjusted to molar equivalents of tetramisole free base
# [2] = Heligmosomoides polygyrus, po, molar-adjusted, read-out: Percent Nematospiroides Activity
# [3] = Approx. LD50, mouse oral, Table IX
# [4] = Heligmosomoides polygyrus, po, continuation of Table X (R1/R4 disubstituted), read-out: ED50
# [5] = Heligmosomoides polygyrus, po, mouse oral, Table IX, read-out: Approx. ED50 vs. N. dubius
# [6] = Heligmosomoides polygyrus, po, single oral dose 10 mg./Kg., molar-adjusted, read-out: Percent Nematospiroides Activity
# [7] = Heligmosomoides polygyrus, po, as Base, single oral dose, mice, > indicates inactive at dose shown, read-out: Approx. ED50
# [8] = as Base, single oral dose, mice, > indicates inactive at dose shown
# [9] = as Base, single oral dose, mice, > indicates inactive at dose shown, hydrochloride
structure (smiles),measurement,setting,value
"CC(C)N(C)c1cccc(C2CN3CCSC3=N2)c1 (racemic) [CH3 N--CH(CH3)2, 6-[m-(isopropylmethylamino)phenyl]-2,3,5,6-tetrahydroimidazo[2,1-b]thiazol]",LD50,in vivo; [1],40 to 60 mg/kg
same,inhibition in vivo at 40 mg/kg,Nematospiroides dubius; [2],78%
same,inhibition in vivo at 60 mg/kg,Nematospiroides dubius; [2],88%
CC(=O)Nc1ccc(Br)c(C2CN3CCSC3=N2)c1 (racemic) [R1 =COCH3 R4 =Br],LD50,in vivo; [3],> 100 mg/kg
same,ED50,Nematospiroides dubius; [4],30 mg/kg
same,ED50,Nematospiroides dubius; [5],30 mg/kg
"Nc1ccc(Br)c(C2CN3CCSC3=N2)c1 (racemic) [R1 =H R4 =Br, dl-6-(5-amino-2-bromophenyl)-2,3,5,6-tetrahydroimidazo[2,1-b]thiazole, dihydrochloride]",Approx. LD50 /ED50,in vivo; Table IX,8
same,LD50,in vivo; [3],40 mg/kg
same,LD50,in vivo; [1],~50 mg/kg
same,Dead/Total,in vivo; single oral dose 20 Mg./Kg.,0/6
same,Dead/Total,in vivo; single oral dose 40 Mg./Kg.,2/6
same,Dead/Total,in vivo; single oral dose 80 Mg./Kg.,6/6
same,ED50,Nematospiroides dubius; [4],5 mg/kg
same,ED50,Nematospiroides dubius; [5],5 mg/kg
same,inhibition in vivo at 4 mg/kg,"Nematospiroides dubius; Heligmosomoides polygyrus, po, single oral dose 4.0 mg./Kg., molar-adjusted, read-out: Percent Nematospiroides Activity",43%
same,inhibition in vivo at 10 mg/kg,Nematospiroides dubius; [6],100%
"Nc1ccccc1C1CN2CCSC2=N1 (racemic) [dl 2HCl NH2 ortho, reference compound]",ED50,Nematospiroides dubius; [7],> 100 mg/kg
"S=C=Nc1cccc(C2CN3CCSC3=N2)c1 (racemic) [dl Base N=C=S meta, reference compound]",ED50,"Nematospiroides dubius; Heligmosomoides polygyrus, po, read-out: Approx. ED50",20 mg/kg
"COc1cccc(C2CN3CCSC3=N2)c1 (racemic) [dl HBr OCH3 meta, reference compound]",ED50,Nematospiroides dubius; [7],> 10 mg/kg
"Cc1cccc(C2CN3CCSC3=N2)c1 (racemic) [dl HCl CH3 meta, reference compound]",ED50,Nematospiroides dubius; [7],> 10 mg/kg
"O=[N+]([O-])c1cccc(C2CN3CCSC3=N2)c1 (racemic) [dl HCl NO2 meta, dl-6-(m-nitrophenyl)-2,3,5,6-tetrahydroimidazo[2,1-b]thiazole hydrochloride, reference compound]",ED50,Nematospiroides dubius; [7],15 mg/kg
"O=[N+]([O-])c1ccccc1C1CN2CCSC2=N1 (racemic) [dl HCl NO2 ortho, reference compound]",ED50,Nematospiroides dubius; [7],> 100 mg/kg
"O=[N+]([O-])c1cccc(C2CN3C=CSC3=N2)c1 (racemic) [dl HClO4 NO2 * meta, reference compound]",ED50,Nematospiroides dubius; [7],25 mg/kg
"Oc1cccc(C2CN3CCSC3=N2)c1 (racemic) [dl OH meta, reference compound]",ED50,Nematospiroides dubius; [7],> 10 mg/kg
CCC(=O)Nc1cccc(C2CN3CCSC3=N2)c1 (racemic) [m-NH--CO--C2 H5 dl],Approx. LD50 /ED50,in vivo; Table IX,20
same,LD50,in vivo; [3],< 40 mg/kg
same,LD50,in vivo; [1],30 to 40 mg/kg
same,Dead/Total,in vivo; single oral dose 40 Mg./Kg.,4/5
same,Dead/Total,in vivo; single oral dose 60 Mg./Kg.,4/6
same,Dead/Total,in vivo; single oral dose 80 Mg./Kg.,5/5
same,Dead/Total,in vivo; single oral dose 100 Mg./Kg.,6/6
same,ED50,Nematospiroides dubius; [7],2 mg/kg
same,ED50,Nematospiroides dubius; [5],2 mg/kg
same,inhibition in vivo at 2 mg/kg,Nematospiroides dubius; [2],76%
same,inhibition in vivo at 5 mg/kg,Nematospiroides dubius; [2],100%
same,inhibition in vivo at 10 mg/kg,Nematospiroides dubius; [6],100%
CCCC(=O)Nc1cccc(C2CN3CCSC3=N2)c1 (racemic) [m-NH--CO--C3 H7n dl],Approx. LD50 /ED50,in vivo; Table IX,20
same,LD50,in vivo; [3],40 mg/kg
same,LD50,in vivo; [1],30 to 40 mg/kg
same,Dead/Total,in vivo; single oral dose 40 Mg./Kg.,3/5
same,Dead/Total,in vivo; single oral dose 60 Mg./Kg.,4/5
same,Dead/Total,in vivo; single oral dose 80 Mg./Kg.,4/5
same,Dead/Total,in vivo; single oral dose 100 Mg./Kg.,5/5
same,ED50,Nematospiroides dubius; [7],2 mg/kg
same,ED50,Nematospiroides dubius; [5],2 mg/kg
same,inhibition in vivo at 1.25 mg/kg,"Nematospiroides dubius; Heligmosomoides polygyrus, po, single oral dose 1.25 mg./Kg., molar-adjusted, read-out: Percent Nematospiroides Activity",43%
same,inhibition in vivo at 2 mg/kg,Nematospiroides dubius; [2],58%
same,inhibition in vivo at 5 mg/kg,Nematospiroides dubius; [2],99%
same,inhibition in vivo at 10 mg/kg,Nematospiroides dubius; [6],100%
"CC(C)(C)C(=O)Nc1cccc(C2CN3C=CSC3=N2)c1 (stereo not drawn) [5,6-dihydro HN-CO-C(CH3)3, 3'-(5,6-dihydroimidazo[2,1-b]thiazol-6-yl)pivalanilide]",ED50,Nematospiroides dubius; [7],7.5 mg/kg
same,inhibition in vivo at 5 mg/kg,Nematospiroides dubius; [2],35%
same,inhibition in vivo at 10 mg/kg,Nematospiroides dubius; [6],80%
"CC(C)C(=O)Nc1cccc(C2CN3C=CSC3=N2)c1 (stereo not drawn) [5,6-dihydro HN-CO-CH(CH3)2, 3'(5,6-dihydroimidazo[2,1-b]thiazol-6-yl)isobutyranilide]",ED50,Nematospiroides dubius; [7],7.5 mg/kg
same,inhibition in vivo at 5 mg/kg,Nematospiroides dubius; [2],32%
same,inhibition in vivo at 10 mg/kg,Nematospiroides dubius; [6],68%
"CC(C)N(C=O)c1cccc(C2CN3CCSC3=N2)c1 (stereo not drawn) [(CH3)2 CH--N--CHO, N-isopropyl-3'-(2,3,5,6-tetrahydroimidazo[2,1-b]thiazol-6-yl) formanilide dihydrochloride]",inhibition in vivo at 40 mg/kg,Nematospiroides dubius; [2],99%
same,inhibition in vivo at 60 mg/kg,Nematospiroides dubius; [2],100%
CC(=O)Nc1cccc(C2CN3CCSC3=N2)c1 (stereo not drawn) [H--N--CO--CH3 l-],Percent Nematospiroides Activity,"Nematospiroides dubius; single oral dose 4.0 mg./Kg., molar-adjusted",51%
same,Percent Nematospiroides Activity,"Nematospiroides dubius; single oral dose 10 mg./Kg., molar-adjusted",100%
CS(=O)(=O)Nc1cccc(C2CN3CCSC3=N2)c1 (stereo not drawn) [H--N--SO2 CH3],inhibition in vivo at 100 mg/kg,Nematospiroides dubius; [2],100%
CC(CO)Nc1cccc(C2CN3CCSC3=N2)c1 (stereo not drawn) [HN--CH(CH3)CH2 OH],inhibition in vivo at 5 mg/kg,Nematospiroides dubius; [2],1%
same,inhibition in vivo at 10 mg/kg,Nematospiroides dubius; [6],1%
same,inhibition in vivo at 50 mg/kg,Nematospiroides dubius; [2],67%
c1ccc(CNc2cccc(C3CN4CCSC4=N3)c2)cc1 (stereo not drawn) [Table XII b1716],inhibition in vivo at 5 mg/kg,Nematospiroides dubius; [2],56%
same,inhibition in vivo at 10 mg/kg,Nematospiroides dubius; [6],91%
same,inhibition in vivo at 20 mg/kg,Nematospiroides dubius; [2],95%
COc1ccc(CNc2cccc(C3CN4CCSC4=N3)c2)cc1 (stereo not drawn) [Table XII b1718],inhibition in vivo at 10 mg/kg,Nematospiroides dubius; [6],40%
same,inhibition in vivo at 20 mg/kg,Nematospiroides dubius; [2],100%
same,inhibition in vivo at 50 mg/kg,Nematospiroides dubius; [2],100%
same,inhibition in vivo at 100 mg/kg,Nematospiroides dubius; [2],100%
O=C(Cc1ccccc1)Nc1cccc(C2CN3CCSC3=N2)c1 (stereo not drawn) [Table XII b1825],inhibition in vivo at 2 mg/kg,Nematospiroides dubius; [2],44%
same,inhibition in vivo at 5 mg/kg,Nematospiroides dubius; [2],76%
same,inhibition in vivo at 10 mg/kg,Nematospiroides dubius; [6],95%
Nc1ccc(Br)c(C2CN3CCSC3=N2)c1 (stereo not drawn) [Table XIII b1902],inhibition in vivo at 30 mg/kg,"Nematospiroides dubius; Heligmosomoides polygyrus, po, single oral dose 30 mg./Kg., molar-adjusted, read-out: Percent Nematospiroides Activity",37%
same,inhibition in vivo at 60 mg/kg,Nematospiroides dubius; [2],97%
CC(=O)Nc1ccc(Br)c(C2CN3CCSC3=N2)c1 (stereo not drawn) [Table XIII b1903],inhibition in vivo at 50 mg/kg,Nematospiroides dubius; [2],100%
same,inhibition in vivo at 100 mg/kg,Nematospiroides dubius; [2],100%
"Nc1cccc(C2CN3CCSC3=N2)c1 (stereo not drawn) [d 2HCl NH2 meta, d-2,3,5,6-Tetrahydro-6-(m-aminophenyl)imidazo[2,1-b]thiazoleDihydrochloride]",Approx. ED50,Nematospiroides dubius; [8],10 Mg./Kg.
"Nc1ccc(C2CN3CCSC3=N2)cc1 (stereo not drawn) [d 2HCl NH2 para, reference compound]",Approx. ED50,Nematospiroides dubius; [8],> 20 Mg./Kg.
"O=CNc1ccc(C2CN3CCSC3=N2)cc1 (stereo not drawn) [d Base NH--HCO para, reference compound]",Approx. ED50,Nematospiroides dubius; [8],> 40 Mg./Kg.
"O=[N+]([O-])c1cccc(C2CN3CCSC3=N2)c1 (stereo not drawn) [d HCl NO2 meta, d-6-(m-nitrophenyl)-2,3,5,6-tetrahydroimidazo[2,1-b]thiazole hydrochloride, reference compound]",Approx. ED50,Nematospiroides dubius; [9],> 30 Mg./Kg.
"O=[N+]([O-])c1ccc(C2CN3CCSC3=N2)cc1 (stereo not drawn) [d HCl NO2 para, reference compound]",Approx. ED50,Nematospiroides dubius; [8],> 200 Mg./Kg.
"Nc1ccc(C2CN3CCSC3=N2)cc1 (stereo not drawn) [l 2HCl NH2 para, reference compound]",ED50,Nematospiroides dubius; [7],> 10 mg/kg
"CNc1ccc(C2CN3CCSC3=N2)cc1 (stereo not drawn) [l 2HCl NH--CH3 para, reference compound]",ED50,Nematospiroides dubius; [7],> 50 mg/kg
"O=CNc1ccc(C2CN3CCSC3=N2)cc1 (stereo not drawn) [l Base NH--HCO para, reference compound]",Approx. ED50,Nematospiroides dubius; [8],> 10 Mg./Kg.
"O=[N+]([O-])c1cccc(C2CN3CCSC3=N2)c1 (stereo not drawn) [l HCl NO2 meta, l-6-(m-Nitrophenyl)-2,3,5,6-tetrahydroimidazo[2,1-b]thiazole hydrochloride, reference compound]",Approx. ED50,Nematospiroides dubius; [9],12 Mg./Kg.
"O=[N+]([O-])c1ccc(C2CN3CCSC3=N2)cc1 (stereo not drawn) [l HCl NO2 para, reference compound]",Approx. ED50,Nematospiroides dubius; [8],40 Mg./Kg.
